Literature values as cited in patent US12498364B2, “Use of soluble urokinase plasminogen activator receptor levels to indicate prevention of cardiovascular disease with a statin” (The Regents of the University of Michigan, priority 2019, dated 2025).
Entries after “also recorded” stand apart in the source; their conditions may differ.

Columns and labels:
[1] = cited from earlier work
interleukin 1β = biological target: T1, interleukin 1β (Homo sapiens, UniProt P01584); conditions: patients with heart disease and hs-CRP>2.0 mg/L; cited from earlier work
T1 construct: host or cells: patients (in vivo, endogenous cytokine)

CC(=O)S[C@@H]1CC2=CC(=O)CC[C@]2(C)[C@H]2CC[C@@]3(C)[C@@H](CC[C@@]34CCC(=O)O4)[C@H]12 [spironolactone]
incidence of the primary outcome ([1]; overall study, HFpEF): did not decrease the incidence of the primary outcome
incidence of cardiovascular events compared to placebo ([1]; post-hoc, North American patients): lower incidence of cardiovascular events

canakinumab
hs-CRP compared to placebo (interleukin 1β): reduction in hs-CRP
rate of cardiovascular events compared to placebo (interleukin 1β): lower rate of cardiovascular events; also recorded: reduced risk of adverse cardiovascular events
